Key:
Tpl2 = Tpl2 (Homo sapiens, UniProt P41279); settings: background statement; cited from earlier work
human Cot/Tpl2 kinase = molecular target: T1, human Cot/Tpl2 kinase (Homo sapiens, UniProt P41279); experiment: Tpl2/Cot kinase assay: GST-MEK1 phosphorylation detected by ELISA (DELFIA Eu); format: biochemical
T1 construct: human Cot/Tpl2 kinase construct encoding residues 30-398; 6His (N); made in house; host or cells: Sf9 insect cells, baculovirus system (BD Biosciences)
How it was run: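 His-tagged human Tpl2 from Sf9 cells, Ni-affinity and size-exclusion purified (monomer). 0.4 nM Tpl2 with 35 nM GST-MEK1, 50 uM ATP, MOPS pH 7.2, 1% DMSO, 1 h at 30° C; EDTA stop. MEK1 Ser217/221 phosphorylation detected by anti-phospho-MEK1 and Eu-labelled secondary ELISA; IC50 fitted.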

[1] = Table 2, Tpl2/Cot kinase, GST-MEK1 substrate, 50 uM ATP

T1 sequence (P41279 30-398): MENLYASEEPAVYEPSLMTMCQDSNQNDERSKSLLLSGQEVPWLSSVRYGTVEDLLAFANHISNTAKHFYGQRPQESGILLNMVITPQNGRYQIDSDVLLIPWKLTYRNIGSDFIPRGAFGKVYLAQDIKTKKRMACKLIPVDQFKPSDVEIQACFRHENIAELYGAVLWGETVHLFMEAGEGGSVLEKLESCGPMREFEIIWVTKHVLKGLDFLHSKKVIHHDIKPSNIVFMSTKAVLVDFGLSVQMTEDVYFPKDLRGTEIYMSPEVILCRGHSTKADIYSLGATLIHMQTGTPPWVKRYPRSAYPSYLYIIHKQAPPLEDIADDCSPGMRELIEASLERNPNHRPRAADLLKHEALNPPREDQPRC
Tpl2, sequence (P41279 whole entry): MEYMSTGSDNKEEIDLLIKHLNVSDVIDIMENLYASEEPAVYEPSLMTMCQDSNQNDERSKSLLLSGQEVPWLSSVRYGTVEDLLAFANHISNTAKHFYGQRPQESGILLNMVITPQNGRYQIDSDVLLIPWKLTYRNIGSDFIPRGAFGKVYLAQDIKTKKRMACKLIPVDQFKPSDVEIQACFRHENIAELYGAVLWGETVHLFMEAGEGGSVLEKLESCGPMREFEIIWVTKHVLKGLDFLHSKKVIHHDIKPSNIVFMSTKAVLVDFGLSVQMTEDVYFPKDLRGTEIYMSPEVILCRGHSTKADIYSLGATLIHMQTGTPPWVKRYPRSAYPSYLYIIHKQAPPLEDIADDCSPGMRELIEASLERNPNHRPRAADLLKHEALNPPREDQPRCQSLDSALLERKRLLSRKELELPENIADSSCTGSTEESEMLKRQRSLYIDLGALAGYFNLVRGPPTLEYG

CN[C@@H]1C[C@H]2O[C@@](C)([C@@H]1OC)n1c3ccccc3c3c4c(c5c6ccccc6n2c5c31)C(=O)NC4 [staurosporine]
inhibition of Tpl2 (Tpl2): not inhibited

N#Cc1cnc2c(Br)cc(NCc3cc(C4CCNCC4)n[nH]3)cc2c1Nc1ccc(F)c(Cl)c1 [Example 707]
IC50 (human Cot/Tpl2 kinase; Tpl2/Cot kinase, GST-MEK1 substrate, 50 uM ATP): 800 nM

N#Cc1cnc2c(Cl)cc(NCC(=O)N3CCNCC3)cc2c1Nc1ccc(F)c(Cl)c1 [Example 470]
IC50 (human Cot/Tpl2 kinase; [1]): 420 nM

N#Cc1cnc2c(C(F)(F)F)cc(NCc3cnc(N4CCOCC4)s3)cc2c1Nc1ccc(F)c(Cl)c1 [Example 244, 4-[(3-chloro-4-fluorophenyl)amino]-6-{[(2-morpholin-4-yl-1,3-thiazol-5-yl)methyl]amino}-8-(trifluoromethyl)quinoline-3-carbonitrile]
IC50 (human Cot/Tpl2 kinase; 0.4 nM Tpl2, 35 nM GST-MEK1, 50 uM ATP, 1 h at 30° C.): > 40000 nM

N#Cc1cnc2c(Cl)cc(NCC(=O)Nc3cccnc3)cc2c1Nc1ccc(F)c(Cl)c1 [Example 601]
IC50 (human Cot/Tpl2 kinase; [1]): 110 nM

Reference: patent US20060264460A1 (Wyeth, priority 2005, published 2006)
